US10975037B2 (priority 2018, dated 2021)
Like-named read-outs stand apart in the source and are kept apart here. Marks after values point to notes of the source that are not given here.

Experiments:
[1] = biological target: full-length human RORγt (Homo sapiens (Human), UniProt P51449); assay: RORγt (full-length human) reporter assay, conditions A or B, HEK293T cells; assay type: cell-based; settings: for inhibition at 3 µM / inhibition at […] / inhibition at 2 µM / inhibition at 6 µM / inhibition at 0.67 µM: HEK-293T; for inhibition at 3 µM: 3 μM compound concentration (footnote *); for inhibition at 3 µM / inhibition at […] / inhibition at 2 µM / inhibition at 0.67 µM: read-out: RORγt (FL) Reporter Assay A or B, % inhibition; for inhibition at […]: 0.22 μM compound concentration (footnote *******); for inhibition at 2 µM: 2 μM compound concentration; for inhibition at 6 µM: read-out: RORγt (FL) Reporter Assay A or B, % inhibition @ 6 μM; for inhibition at 0.67 µM: 0.67 μM compound concentration (footnote ****)
Method in brief: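 Dual-luciferase read-out was taken after an overnight (16–20 h) compound exposure. Firefly data were scaled between DMSO-only and saturating reference compound, Renilla-normalized, then plotted against concentration for IC50.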

[2] = biological target: human RORγt ligand binding domain (RORγt LBD) (Homo sapiens (Human), UniProt P51449); assay: RORγt ThermoFluor® assay (thermal shift binding)
Method in brief: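 Thermal shift with 0.065 mg/mL RORγt LBD and 60 μM 1,8-ANS in 100 mM Hepes pH 7.0, 10 mM NaCl, 2.5 mM GSH, 0.002% Tween-20.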

[3] = RORγt (FL) Reporter Assay A or B, IC50, HEK293T cells
[4] = read-out: ThermoFluor® Assay, Kd
[5] = HEK293T cells, read-out: RORγt (FL) Reporter Assay A or B, IC50

Chain of full-length human RORγt (P51449 other isoform, or with tags, fused parts or gaps): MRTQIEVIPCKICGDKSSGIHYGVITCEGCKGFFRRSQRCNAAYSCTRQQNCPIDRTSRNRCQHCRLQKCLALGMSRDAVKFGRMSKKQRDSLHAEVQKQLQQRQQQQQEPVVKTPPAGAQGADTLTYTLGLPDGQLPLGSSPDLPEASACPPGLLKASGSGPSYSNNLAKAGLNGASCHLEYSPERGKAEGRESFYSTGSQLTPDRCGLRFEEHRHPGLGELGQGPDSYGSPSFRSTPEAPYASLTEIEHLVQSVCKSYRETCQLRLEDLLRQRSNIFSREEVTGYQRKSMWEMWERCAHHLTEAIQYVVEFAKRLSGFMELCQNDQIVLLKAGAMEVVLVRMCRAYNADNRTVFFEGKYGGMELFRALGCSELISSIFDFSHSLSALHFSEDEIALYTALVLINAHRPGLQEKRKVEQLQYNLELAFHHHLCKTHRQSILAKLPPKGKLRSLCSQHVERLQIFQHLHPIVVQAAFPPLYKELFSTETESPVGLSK
Chain of human RORγt ligand binding domain (RORγt LBD) (P51449 other isoform, or with tags, fused parts or gaps): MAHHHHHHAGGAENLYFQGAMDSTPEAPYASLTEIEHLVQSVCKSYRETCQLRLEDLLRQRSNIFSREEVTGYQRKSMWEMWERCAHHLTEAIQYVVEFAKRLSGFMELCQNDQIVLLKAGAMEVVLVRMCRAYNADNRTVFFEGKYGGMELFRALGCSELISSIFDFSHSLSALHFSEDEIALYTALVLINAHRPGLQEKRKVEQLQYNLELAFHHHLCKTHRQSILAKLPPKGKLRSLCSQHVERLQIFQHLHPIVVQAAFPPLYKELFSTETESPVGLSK

Structure (SMILES) | IC50 [1, 3] [nM] | Kd [2, 4] [nM] | further results
CCn1nc(C(=O)NC[C@H]2CC[C@H](S(C)(=O)=O)CC2)c(Cl)c1-c1ccc(C(O)(C(F)(F)F)C(F)(F)F)cc1OC(F)F [Example 116, 4-Chloro-5-(2-(difluoromethoxy)-4-(1,1,1,3,3,3-hexafluoro-2-hydroxypropan-2-yl)phenyl)-1-ethyl-N-(((1r,4r)-4-(methylsulfonyl)cyclohexyl)methyl)-1H-pyrazole-3-carboxamide] | 3.4 | 0.15 | inhibition at 3 µM [1]: 106%
CCOC(=O)[C@]1(CNC(=O)c2nn(CC)c(-c3ccc(CC(C)(C)C(F)(F)F)cc3OC(F)F)c2Cl)CC[C@@H](S(C)(=O)=O)CC1 [Example 120, Ethyl (1r*,4r*)-1-((4-chloro-5-(2-(difluoromethoxy)-4-(3,3,3-trifluoro-2,2-dimethylpropyl)phenyl)-1-ethyl-1H-pyrazole-3-carboxamido)methyl)-4-(methylsulfonyl)cyclohexane-1-carboxylate] | 28 |  | inhibition at […] [1]: 92%; Kd ([2]; ThermoFluor® Assay, Kd): 10 nM
CCn1nc(C(=O)NC[C@H]2CC[C@H](S(C)(=O)=O)CC2)c(Cl)c1-c1ccc(N[C@H](C)C(F)(F)F)cc1OC(F)(F)F [Example 190, 4-Chloro-1-ethyl-N-(((1r,4R)-4-(methylsulfonyl)cyclohexyl)methyl)-5-(2-(trifluoromethoxy)-4-(((R)-1,1,1-trifluoropropan-2-yl)amino)phenyl)-1H-pyrazole-3-carboxamide] | 21 | 1.2 | inhibition at 2 µM [1]: 104%
CCn1nc(C(=O)NC[C@]2(O)CC[C@@H](S(C)(=O)=O)CC2)c(C(F)(F)F)c1-c1ccc(N[C@H](C)C(F)(F)F)cc1OC [Example 217, 1-Ethyl-N-(((1s,4S)-1-hydroxy-4-(methylsulfonyl)cyclohexyl)methyl)-5-(2-methoxy-4-(((R)-1,1,1-trifluoropropan-2-yl)amino)phenyl)-4-(trifluoromethyl)-1H-pyrazole-3-carboxamide] |  | 17 | RORγt (FL) Reporter Assay A or B, % inhibition ([1]; 1 μM compound concentration (footnote ***)): 104*** %; IC50 [1, 5]: 13 nM
CCn1nc(C(=O)NC[C@@]2(O)CC[C@H](S(C)(=O)=O)C[C@@H]2O)c(Cl)c1-c1ccc(C[C@H](C)C(F)(F)F)cc1OC(F)F (stereo in doubt) [Example 52, 4-Chloro-5-(2-(difluoromethoxy)-4-((S*)-3,3,3-trifluoro-2-methylpropyl)phenyl)-N-(((1S*,2S*,4S*)-1,2-dihydroxy-4-(methylsulfonyl)cyclohexyl)methyl)-1-ethyl-1H-pyrazole-3-carboxamide] | 26 |  | inhibition at 3 µM [1]: 103%; Kd ([2]; ThermoFluor® Assay, Kd): 3.5 nM
CCn1nc(C(=O)NC[C@H]2CC[C@H](S(C)(=O)=O)CC2)c(Cl)c1-c1ccc(NC(C(F)(F)F)C(F)(F)F)cc1OC [Example 216, 4-Chloro-1-ethyl-5-(4-((1,1,1,3,33-hexafluoropropan-2-yl)amino)-2-methoxyphenyl)-N-(((1r,4r)-4-(methylsulfonyl)cyclohexyl)methyl)-1H-pyrazole-3-carboxamide] | 28 | 0.97 | inhibition at 2 µM [1]: 107%
CCn1nc(C(=O)NC[C@]2(O)CC[C@H](S(C)(=O)=O)CC2)c(Cl)c1-c1ccc(N[C@H](C)C(F)(F)F)cc1OC [Example 220, 4-Chloro-1-ethyl-N-(((1r,4R)-1-hydroxy-4-(methylsulfonyl)cyclohexyl)methyl)-5-(2-methoxy-4-(((R)-1,1,1-trifluoropropan-2-yl)amino)phenyl)-1H-pyrazole-3-carboxamide] |  | 430 | RORγt (FL) Reporter Assay A or B, % inhibition @ 6 μM ([1]; 6 μM compound concentration): 90%; IC50 [1, 5]: 1100 nM
COCCn1nc(C(=O)NC[C@H]2CC[C@H](S(C)(=O)=O)CC2)c(Cl)c1-c1ccc(CC(C)(C)C(F)(F)F)cc1OC [Example 185, 4-Chloro-5-(2-methoxy-4-(3,3,3-trifluoro-2,2-dimethylpropyl)phenyl)-1-(2-methoxyethyl)-N-(((1r,4r)-4-(methylsulfonyl)cyclohexyl)methyl)-1H-pyrazole-3-carboxamide] | 30 | 2.4 | inhibition at 2 µM [1]: 92%
Cn1nc(C(=O)NC[C@@]2(O)CC[C@H](S(C)(=O)=O)C[C@@H]2O)c(Cl)c1-c1ccc(CC(C)(C)C(F)(F)F)cc1OC(F)F (relative stereo) [Example 153, 4-Chloro-5-(2-(difluoromethoxy)-4-(3,3,3-trifluoro-2,2-dimethylpropyl)phenyl)-N-(((1S*,2S*,4S*)-1,2-dihydroxy-4-(methylsulfonyl)cyclohexyl)methyl)-1-methyl-1H-pyrazole-3-carboxamide] | 49 |  | inhibition at 3 µM [1]: 85%; Kd ([2]; ThermoFluor® Assay, Kd): 9 nM
CCn1nc(C(=O)NC[C@H]2CC[C@@H](S(C)(=O)=O)CC2)c(Cl)c1-c1ccc(N[C@H](C)C(F)(F)F)cc1Cl [Example 175, 4-Chloro-5-(2-chloro-4-(((R)-1,1,1-trifluoropropan-2-yl)amino)phenyl)-1-ethyl-N-(((1s,4S)-4-(methylsulfonyl)cyclohexyl)methyl)-1H-pyrazole-3-carboxamide] | 510 | 230 | inhibition at 2 µM [1]: 88%
CCn1nc(C(=O)NC[C@]2(O)CC[C@@H](S(C)(=O)=O)CC2)c(Cl)c1-c1ccc(CC(C)(C)C(F)(F)F)cc1Cl [Example 164, 4-Chloro-5-(2-chloro-4-(3,3,3-trifluoro-2,2-dimethylpropyl)phenyl)-1-ethyl-N-(((1s,4s)-1-hydroxy-4-(methylsulfonyl)cyclohexyl)methyl)-1H-pyrazole-3-carboxamide] | 6.6 | 0.5 | 
CCn1nc(C(=O)NC[C@]2(O)CC[C@@H](S(C)(=O)=O)CC2)c(Cl)c1-c1ccc([C@@](C)(O)CC(F)(F)F)cc1OC(F)F (single isomer, unassigned) [Example 99, 4-Chloro-5-(2-(difluoromethoxy)-4-((S*)-4,4,4-trifluoro-2-hydroxybutan-2-yl)phenyl)-1-ethyl-N-(((1s,4R)-1-hydroxy-4-(methylsulfonyl)cyclohexyl)methyl)-1H-pyrazole-3-carboxamide] | 2600 |  | inhibition at 3 µM [1]: -21%; Kd ([2]; ThermoFluor® Assay, Kd): 230 nM
COc1cc(N[C@H](C)C(F)(F)F)ccc1-c1c(Cl)c(C(=O)NC[C@]2(O)CC[C@@H](S(C)(=O)=O)CC2)nn1C(C)(C)C [Example 27, 1-(tert-Butyl)-4-chloro-N-(((1s,4S)-1-hydroxy-4-(methylsulfonyl)cyclohexyl)methyl)-5-(2-methoxy-4-(((R)-1,1,1-trifluoropropan-2-yl)amino)phenyl)-1H-pyrazole-3-carboxamide] | 60 | 7.4 | inhibition at 6 µM ([1]; 6 μM compound concentration): 105%
CCn1nc(C(=O)NC[C@H]2CC[C@H](S(C)(=O)=O)CC2)c(Cl)c1-c1ccc(N[C@H](C)C(F)(F)F)cc1Cl [Example 176, 4-Chloro-5-(2-chloro-4-(((R)-1,1,1-trifluoropropan-2-yl)amino)phenyl)-1-ethyl-N-(((1r,4R)-4-(methylsulfonyl)cyclohexyl)methyl)-1H-pyrazole-3-carboxamide] | 18 | 3.8 | inhibition at 0.67 µM [1]: 102%
CCn1nc(C(=O)NC[C@H]2CC[C@H](S(C)(=O)=O)CC2)c(C#N)c1-c1ccc(CC(C)C(F)(F)F)cc1OC (some centres unmarked) [Example 123, 4-Cyano-1-ethyl-5-(2-methoxy-4-(3,3,3-trifluoro-2-methylpropyl)phenyl)-N-(((1r,4r)-4-(methylsulfonyl)cyclohexyl)methyl)-1H-pyrazole-3-carboxamide] | 35 | 9.6 | inhibition at 2 µM [1]: 85%
CCn1nc(C(=O)NC[C@H]2CC[C@H](S(C)(=O)=O)CC2)c(Cl)c1-c1ccc(C[C@@H](C)C(F)(F)F)cc1OC (single isomer, unassigned) [Example 1, 4-Chloro-1-ethyl-5-(2-methoxy-4-((R*)-3,3,3-trifluoro-2-methylpropyl)phenyl)-N-(((1r,4R)-4-(methylsulfonyl)cyclohexyl)methyl)-1H-pyrazole-3-carboxamide] | 6 |  | inhibition at 0.67 µM [1]: 99%; Kd ([2]; ThermoFluor® Assay, Kd): 0.6 nM
CCn1nc(C(=O)NC[C@H]2CC[C@H](S(C)(=O)=O)CC2)c(Cl)c1-c1ccc(CC(C)(C)C(F)(F)F)cc1OC(F)F [Example 2, 4-Chloro-5-(2-(difluoromethoxy)-4-(3,3,3-trifluoro-2,2-dimethylpropyl)phenyl)-1-ethyl-N-(((1r,4r)-4-(methylsulfonyl)cyclohexyl)methyl)-1H-pyrazole-3-carboxamide] | 4.4 | 0.16 | inhibition at […] [1]: 94%
CCn1nc(C(=O)NC[C@]2(O)CC[C@@H](S(C)(=O)=O)CC2)c(Cl)c1-c1ccc(CCC(F)(F)F)cc1OC [Example 39, 4-Chloro-1-ethyl-N-(((1s,4s)-1-hydroxy-4-(methylsulfonyl)cyclohexyl)methyl)-5-(2-methoxy-4-(3,3,3-trifluoropropyl)phenyl)-1H-pyrazole-3-carboxamide] | 38 | 10 | inhibition at 6 µM ([1]; 6 μM compound concentration): 85%
